From article PMC8224038, “Anti-Leukemic Properties of Aplysinopsin Derivative EE-84 Alone and Combined to BH3 Mimetic A-1210477” (Marine Drugs, 2021)
Read-outs that look alike come from different tables or passages of the source.

Key:
[1] = tested on: RPMI 1788; assay: Trypan blue exclusion test, proliferation (GI50) in noncancerous cells; assay type: cell-based, human; settings: Homo sapiens
Method: (§1) Cell proliferation and viability were assessed by the trypan blue exclusion method (Lonza), and viable cells were counted using a hematocytometer (Marienfeld, Lauda-Königshofen, Germany). Differential toxicity was calculated by comparing the viability of RPMI 1788 cells to the viability of cancer cells (normal/cancer cells). The difference in viability was expressed in terms of fold change.

[2] = tested on: K562 cells; assay: Trypan blue exclusion test, proliferation (GI50); assay type: cell-based, human; settings: Homo sapiens
Method: as §1

[3] = tested on: K562; assay: Methocult colony formation assay; assay type: cell-based, human; settings: K562, 48-h pretreatment
Method: For 48 h pretreatment of EE-84 colony formation assays, approximately 3 × 10^5 cells were seeded in each well of a 24-well plate, treated with EE-84 at indicated concentrations, and incubated at 37 °C and 5% of CO2 in a humidified atmosphere for 48 h. After 48 h, 1000 cells were counted and grown in a semisolid methylcellulose medium (Methocult H4230, StemCell Technologies Inc., Vancouver, BC, Canada) supplemented with 10% FBS. Colonies were detected after 10 days of culture by adding 1 mg/mL of 3-(4,5-dimethylthiazol-2-yl)-2,5-diphenyltetrazolium bromide (MTT) reagent (Sigma-Aldrich) and were analyzed by Image J 1.8.0 software (U.S. National Institute of Health, Bethesda, MD, USA).

[4] = tested on: K562 cells; assay: Cell cycle analysis (PI, FACS); assay type: cell-based, human
Method: Cells were collected and fixed in 70% ethanol. DNA was stained with propidium iodide (PI) solution (1 μg/mL, Sigma-Aldrich, St. Louis, MO, USA) in 1XPBS (Biosesang, Seongnam, Korea) for 30 min at 37 °C, supplemented with RNase A (100 μg/mL, Roche, Basel, Switzerland). Samples were analyzed by flow cytometry using the FACSCalibur^TM system, Becton Dickinson (BD) Biosciences (San Jose, CA, USA). Data were recorded statistically (10,000 events/sample) using the Cell Quest software (BD Biosciences) and analyzed using Flow-Jo 8.8.5 software (Tree Star, Inc., Ashland, OR, USA).

[5] = tested on: K562IR cells; assay: Seahorse XFp Glycolysis Stress test (ECAR); assay type: cell-based, human; settings: EE-84 100 μM, 72 h
Method: (§2) The oxygen consumption rate (OCR) was measured using a Seahorse XFp Cell Mito Stress Assay (#103010-100, Agilent Technologies, Seoul, Korea) ran on a Seahorse XFp analyzer (Agilent Technologies, Seoul, Korea) according to the manufacturer’s instructions. […] Before measurements, plates were equilibrated in a CO2-free incubator at 37 °C for 1 h. The analysis was performed using 1.5 µM oligomycin, 0.5 µM carbonyl cyanide-4-(trifluoromethoxy)phenylhydrazone (FCCP), and 1 µM rotenone/antimycin A as indicated. Data were analyzed using the Seahorse XF Cell Mito Stress Test report generator software (Agilent). The extracellular acidification rate (ECAR) was measured in response to the sequential injection of 10 mM glucose, 2 µM oligomycin (H+-ATP-synthase inhibitor), and 50 mM 2-deoxy-d-glucose (2DG) (hexokinase inhibitor) to detect non-glycolytic acidification, glycolysis, maximal glycolytic capacity, and glycolytic reserve using a Seahorse XFp analyzer with a Glycolysis Stress Test kit (Agilent, Santa Clara, CA, USA).

[6] = tested on: K562; assay: Seahorse XFp Glycolysis Stress test (ECAR); assay type: cell-based, human; settings: K562, EE-84 50 μM, 72 h, vs control
Method: as §2

[7] = tested on: K562IR cells; assay: Trypan blue exclusion test, viability; assay type: cell-based; settings: Homo sapiens, 24 h
Method: as §1

[8] = tested on: K562 cells; assay: Trypan blue exclusion test, viability; assay type: cell-based, human; settings: Homo sapiens
Method: as §1

[9] = tested on: PBMCs; assay: Toxicity test in nonproliferating and proliferating PBMCs (trypan blue); assay type: cell-based, human; settings: 24, 48, 72 h
Method: Peripheral blood mononuclear cells (PBMCs) were isolated by density gradient centrifugation using Ficoll-Hypaque (GE Healthcare, Roosendaal, The Netherlands) from freshly collected buffy coats as previously described, obtained from healthy adult human volunteers (Red Cross, Luxembourg City, Luxembourg) after ethical approval as well as written informed consent from each volunteer. After isolation, cells were incubated overnight at 2 × 10^6 cells/mL in RPMI 1640 (supplemented with 1% antibiotic–antimycotic and 10% FCS (BioWhittaker, Verviers, Belgium) at 37 °C and 5% CO2 in a humidified atmosphere. The day after, cell concentration was adjusted at 1 × 10^6 cells/mL using the same fresh complete medium and then treated as indicated.
as §1

[10] = tested on: K562IR; assay: Trypan blue exclusion test, proliferation (GI50); assay type: cell-based; settings: Homo sapiens
Method: as §1

[11] = tested on: MEG01; assay: Trypan blue exclusion test, proliferation (GI50); assay type: cell-based; settings: Homo sapiens, MEG-01
Method: as §1

[12] = tested on: KBM5IR; assay: Trypan blue exclusion test, proliferation (GI50); assay type: cell-based
Method: as §1

[13] = tested on: KBM5; assay: Trypan blue exclusion test, proliferation (GI50); assay type: cell-based; settings: Homo sapiens
Method: as §1

Molecule COc1ccc2c(c1)c(C(=O)C(=O)Nc1sc3c(c1C(C)=O)CC(C)CC3)cn2Cc1ccccc1 (stereo not drawn) [EE-84, N-(3-Acetyl-4,5,6,7-Tetrahydro-5-Methylbenzo[b]Thiophen-2-yl)-2-(1-Benzyl-5-Methoxy-1H-Indol-3-yl)-2-Oxoacetamide] has a GI50 ([1]; RPMI 1788, 24 h) greater than 50 µM, a GI50 ([1]; RPMI 1788, 48 h) greater than 50 µM and a GI50 ([1]; RPMI 1788, 72 h) of 40.1 ± 3.79 µM. The GI50 ([2]; K562, 48 h) was 32.2 ± 3.91 µM, the GI50 ([2]; K562, 72 h) was 19.1 ± 0.8 µM and the “total surface area and average size of colonies” value [3] was “reduced”. For the same molecule, the “G1 cell cycle phase” value ([4]; K562, 48 h, EE-84 10 μM) was 59.59 ± 1.12%, the “G2/M cell cycle phase” value ([4]; K562, 48 h, EE-84 10 μM) was 18.64 ± 0.75% and the “S cell cycle phase” value ([4]; K562, 48 h, EE-84 10 μM) was 20.30 ± 1.68%. For the same molecule, the “Sub-G1 cell cycle phase” value ([4]; K562, 48 h, EE-84 10 μM) was 1.48 ± 0.81%, the “G1 cell cycle phase” value ([4]; K562, 48 h, EE-84 30 μM) was 61.11 ± 1.58% and the “G2/M cell cycle phase” value ([4]; K562, 48 h, EE-84 30 μM) was 13.25 ± 0.32%. The “S cell cycle phase” value ([4]; K562, 48 h, EE-84 30 μM) was 20.99 ± 0.83%, the “Sub-G1 cell cycle phase” value ([4]; K562, 48 h, EE-84 30 μM) was 4.65 ± 2.42% and the “G1 cell cycle phase” value ([4]; K562, 48 h, EE-84 50 μM) was 58.40 ± 2.81%. The “G2/M cell cycle phase” value ([4]; K562, 48 h, EE-84 50 μM) was 12.86 ± 1.46%, the “S cell cycle phase” value ([4]; K562, 48 h, EE-84 50 μM) was 20.41 ± 1.84% and the “Sub-G1 cell cycle phase” value ([4]; K562, 48 h, EE-84 50 μM) was 8.34 ± 1.51%. For the same molecule, the “G1 cell cycle phase” value ([4]; K562, 72 h, EE-84 10 μM) was 60.83 ± 2.33%, the “G2/M cell cycle phase” value ([4]; K562, 72 h, EE-84 10 μM) was 17.57 ± 0.90% and the “S cell cycle phase” value ([4]; K562, 72 h, EE-84 10 μM) was 17.52 ± 4.24%. The “Sub-G1 cell cycle phase” value ([4]; K562, 72 h, EE-84 10 μM) was 4.08 ± 2.80%, the “G1 cell cycle phase” value ([4]; K562, 72 h, EE-84 30 μM) was 55.09 ± 2.26% and the “G2/M cell cycle phase” value ([4]; K562, 72 h, EE-84 30 μM) was 17.03 ± 2.69%. For the same molecule, the “S cell cycle phase” value ([4]; K562, 72 h, EE-84 30 μM) was 21.55 ± 1.64%, the “Sub-G1 cell cycle phase” value ([4]; K562, 72 h, EE-84 30 μM) was 6.33 ± 0.74% and the “G1 cell cycle phase” value ([4]; K562, 72 h, EE-84 50 μM) was 52.03 ± 2.99%. For the same molecule, the “G2/M cell cycle phase” value ([4]; K562, 72 h, EE-84 50 μM) was 15.08 ± 2.89%, the “S cell cycle phase” value ([4]; K562, 72 h, EE-84 50 μM) was 19.85 ± 1.33% and the “Sub-G1 cell cycle phase” value ([4]; K562, 72 h, EE-84 50 μM) was 13.03 ± 1.19%. For the same molecule, the “glycolytic capacity of ECAR” value [5] was “significantly decreased”, the “glycolysis and glycolytic capacity (ECAR)” value [6] was “significantly decreased” and the viability at 30 µM ([7]; EE-84 30 µM) was 95.3 ± 0.6%. The viability at 50 µM ([7]; EE-84 50 µM) was 97 ± 2.7%, the viability at 30 µM ([8]; K562, EE-84 30 μM 48 h with Baf-A1 (40 nM) post-treatment for last 8 h, read-out: cell viability) was 89% and the viability at 30 µM ([8]; K562, EE-84 30 µM, 24 h, read-out: Viability (24 h)) was 98 ± 1%. The viability at 30 µM ([8]; K562, EE-84 30 μM, 48 h, alone, read-out: cell viability) was 98.7%, the viability at 50 µM ([8]; K562, EE-84 50 µM, 24 h) was 96 ± 0.7% and the “toxic effects in nonproliferating and proliferating PBMCs” value [9] was “did not induce toxic effects”. It also gave a GI50 ([10]; 24 h) greater than 100 µM, a GI50 ([10]; 48 h) of 95.6 ± 16.6 µM and a GI50 ([10]; 72 h) of 55.1 ± 3.28 µM. For the same molecule, the GI50 ([11]; MEG01, 24 h) was greater than 50 µM, the GI50 ([11]; MEG01, 48 h) was 48.4 ± 5.02 µM and the GI50 ([11]; MEG01, 72 h) was 28.9 ± 1.52 µM. It also gave a GI50 ([12]; 24 h) greater than 100 µM, a GI50 ([12]; 48 h) of 32.8 ± 2.25 µM and a GI50 ([12]; 72 h) of 29.2 ± 2.05 µM. For the same molecule, the GI50 ([13]; KBM5, 24 h) was greater than 50 µM, the GI50 ([13]; KBM5, 48 h) was 34 ± 1.89 µM and the GI50 ([13]; KBM5, 72 h) was 28.1 ± 1.68 µM.
